EC50 data for 24 compounds are collected here from patent US20250129104A1, “7H-PYRROLO[2,3-D]PYRIMIDINES AND PREPARATION AND USES THEREOF” (BioSplice Therapeutics, Inc., priority 2021, published 2025).

In assay [1] the target is recombinant DYRK1A kinase (Homo sapiens (Human), UniProt Q13627). As to the kind of experiment: DYRK1A kinase assay (Ser/Thr 18 peptide Z-lyte FRET assay). It is filed as biochemical. Particulars: DYRK1A kinase activity; 15 μM ATP, 1 h room temperature; method text calls the value IC50. The gist of the method: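 FRET Z-lyte read-out (coumarin/fluorescein ratio, % phosphorylation) after 1 h development; IC50 from non-linear curve fit. Reaction: 0.25 μg/mL recombinant human DYRK1A, Ser/Thr 18 peptide 4 μM, ATP 15 μM, compound in 11-point 1:3 series from 10 μM, 1 h, room temperature, duplicate wells.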

The test system of assay [2] is Tau phosphorylation at Thr212 (pThr212). Briefly: tau phosphorylation assay: phosphoTau (Thr212) AlphaLISA in HEK293T cells transfected with DYRK1A and MAPT. The assay is classed as cell-based. The conditions noted are these: HEK-293T; HEK293T cells transfected with human DYRK1A and MAPT; 18-24 h compound treatment; read-out: pTau (Thr212) EC50. As for the experimental part:
Representative compounds were screened using the assay procedure for tau phosphorylation activity described below.
HEK293T cells (ATCC, CRL3216) cultured in DMEM (Thermo Fisher Scientific, 10566024) supplemented with 10% FBS (Corning, 35-011-CV) and Penicillin/Streptomycin (Thermo Fisher Scientific, 15140163) were seeded in a 75 cm^2 flask at 8.1×10^6 cells/flask. The HEK293T cells were then transiently transfected with 5 μg DYRK1A (NM_001396) human untagged clone (OriGene, SC314641) and 2.5 μg MAPT (441 a.a. Tau gene) (NM_005910) human untagged clone (OriGene, TP313312) using Lipofectamine 3000 (Thermo Fisher Scientific, L30000015) and incubated for 20-30 hours in a humidified incubator at 37° C. and 5% CO2. Post-incubation, HEK293T cells transfected with the DYRK1A and MAPT expression vectors were harvested and seeded in BioCoat poly-D lysine coated 96-well plates (Corning, 354461) at 3×10^4 cells/well.
The above synthesized compounds were screened using the cell assay procedure to assess decreased Tau phosphorylation at Thr212 (pThr212) described below.
Each compound was dissolved in DMSO (Sigma-Aldrich, D8418-100 mL) as a 10 mM stock. 10 mM stocks were serially diluted 1:3, 10-point dose-response curve and added to the cells with a final concentration ranging from 20 μM to 1.1 nM. Cell were treated with compounds in duplicate and incubated for 18-24 hours in a humidified incubator at 37° C. and 5% CO2.
Following the overnight compound treatment, cells were lysed with 1× Alpha Surefire Ultra Lysis Buffer (Perkin Elmer, ALSU-LB-100ML) complemented with 1× Halt Phosphatase Inhibitor Cocktail (Thermo Fisher Scientific, 78427) and 1× Halt Protease Inhibitor Cocktail (Thermo Fisher Scientific, 78438). Lysates were spun down at 12,000 g for 10 min to remove any cellular debris and 5 μL of lysates were dispensed into a 384-well Opti-Plate (Perkin Elmer, 6007290) for the measurement of Tau phosphorylation in the phosphoTau (Thr212) AlphaLISA assay. Donor antibody, biotinylated HT7Tau (Thermo Fisher Scientific, MN1000B), and acceptor antibody, pThr212Tau (Thermo Fisher Scientific, 44740G) were both added to the cell lysates at a final concentration of 3 nM and incubated for 1 hour at room temperature. Following incubation of the lysates with the donor and acceptor antibodies, anti-rabbit IgG (Fc specific) AlphaLISA acceptor beads (Perkin Elmer, AL104C) were added at a 10 μg/mL final concentration and incubated for 1 hour at room temperature protected from light. Lastly, AlphaScreen streptavidin donor beads (PerkinElmer, 6760002) were added at 40 μg/mL final concentration and incubated for 1 hour at room temperature protected from light. Plates were read at […], and Em=615 nm on the EnVision Multilabel Plate Reader (Perkin Elmer). PhosphoTau (Thr212) AlphaLISA signal was used to plot, draw the curve fitting, and determine each compound's EC50 in Prism (GraphPad).

A word on the EC50: it is the midpoint of the concentration-response curve. Turning to `Cc1nc2ccc(-c3c[nH]c4nc(NCC(C)(C)F)ncc34)cc2s1` [Compound 24, N-(2-Fluoro-2-methylpropyl)-5-(2-methylbenzo[d]thiazol-6-yl)-7H-pyrrolo [2,3-d]pyrimidin-2-amine], the EC50 turned out to be 14.5 nM in assay [1] and 360 nM in assay [2].

`CN1CCC(Nc2ncc3c(-c4cc5cnccc5s4)c[nH]c3n2)CC1` [Compound 87, N-(1-Methylpiperidin-4-yl)-5-(thieno[3,2-c]pyridin-2-yl)-7H-pyrrolo[2,3-d]pyrimidin-2-amine]: the EC50 came to 6.8 nM in assay [1] and 107 nM in assay [2].

With `c1cn2cc(-c3c[nH]c4nc(C5CCC5)ncc34)ccc2n1` [Compound 103, 2-cyclobutyl-5-(imidazo[1,2-a]pyridin-6-yl)-7H-pyrrolo[2,3-d]pyrimidine], the EC50 in assay [1] was 21.9 nM; in assay [2], 4500 nM.

`CC(C)(C)CNc1ncc2c(-c3ccc4nccn4c3)c[nH]c2n1` [Compound 110, 5-(Imidazo[1,2-a]pyridin-6-yl)-N-neopentyl-7H-pyrrolo[2,3-d]pyrimidin-2-amine]: the concentration giving a half-maximal response (EC50) amounted to 36 nM in assay [1] and 22 nM in assay [2].

With `CC(C)(F)CNc1ncc2c(-c3ccc4nccn4c3)c[nH]c2n1` [Compound 112, N-(2-Fluoro-2-methylpropyl)-5-(imidazo[1,2-a]pyridin-6-yl)-7H-pyrrolo[2,3-d]pyrimidin-2-amine], the EC50 came to 2.8 nM in assay [1] and 113 nM in assay [2].

Regarding `C[C@@H](Nc1ncc2c(-c3ccc4nccn4c3)c[nH]c2n1)C(F)(F)F` [Compound 115, (R)-5-(Imidazo[1,2-a]pyridin-6-yl)-N-(1,1,1-trifluoropropan-2-yl)-7H-pyrrolo [2,3-d]pyrimidin-2-amine], the EC50 was found to be 3.1 nM in assay [1] and 30 nM in assay [2].

As for `C[C@H](Nc1ncc2c(-c3ccc4nccn4c3)c[nH]c2n1)C(F)(F)F` [Compound 116, (S)-5-(Imidazo[1,2-a]pyridin-6-yl)-N-(1,1,1-trifluoropropan-2-yl)-7H-pyrrolo [2,3-d]pyrimidin-2-amine], the EC50 in assay [1] turned out to be 9.6 nM; in assay [2], 117 nM.

For `CC[C@H](C)Nc1ncc2c(-c3ccc4ncc(F)n4c3)c[nH]c2n1` [Compound 154, (S)—N-(sec-Butyl)-5-(3-fluoroimidazo[1,2-a]pyridin-6-yl)-7H-pyrrolo[2,3-d]pyrimidin-2-amine], the EC50 in assay [1] came out at 25.9 nM; in assay [2] it was 476 nM.

In the case of `CC(C)(F)CNc1ncc2c(-c3ccc4ncc(F)n4c3)c[nH]c2n1` [Compound 155, N-(2-Fluoro-2-methylpropyl)-5-(3-fluoroimidazo[1,2-a]pyridin-6-yl)-7H-pyrrolo[2,3-d]pyrimidin-2-amine], the results for the EC50 in assay [1] and in assay [2] were 11.7 nM and 227 nM, respectively.

On to `COC[C@H](C)Nc1ncc2c(-c3ccc4ncc(F)n4c3)c[nH]c2n1` [Compound 161, (S)-5-(3-Fluoroimidazo[1,2-a]pyridin-6-yl)-N-(1-methoxypropan-2-yl)-7H-pyrrolo[2,3-d]pyrimidin-2-amine], for which the EC50 in assay [1] was found to be 26.5 nM; in assay [2], 361 nM.

Regarding `COc1nc(CC(C)C)nc2[nH]cc(-c3cc(F)c4nccn4c3)c12` [Compound 187, 5-(8-Fluoroimidazo[1,2-a]pyridin-6-yl)-2-isobutyl-4-methoxy-7H-pyrrolo [2,3-d]pyrimidine], the EC50 in assay [1] came out at 20.3 nM; in assay [2], 765 nM.

In the case of `Fc1cc(-c2c[nH]c3nc(C4CC4)ncc23)cn2ccnc12` [Compound 189, 2-Cyclopropyl-5-(8-fluoroimidazo[1,2-a]pyridin-6-yl)-7H-pyrrolo[2,3-d]pyrimidine], the EC50 in assay [1] came out at 24.2 nM; in assay [2] it was 1660 nM.

`CC[C@H](C)Nc1ncc2c(-c3cc(F)c4nccn4c3)c[nH]c2n1` [Compound 198, (S)—N-(sec-Butyl)-5-(8-fluoroimidazo[1,2-a]pyridin-6-yl)-7H-pyrrolo[2,3-d]pyrimidin-2-amine]: the EC50 in assay [1] is 19.5 nM; in assay [2] it was 351 nM.

Consider `CC(C)(F)CNc1ncc2c(-c3cc(F)c4nccn4c3)c[nH]c2n1` [Compound 199, N-(2-Fluoro-2-methylpropyl)-5-(8-fluoroimidazo[1,2-a]pyridin-6-yl)-7H-pyrrolo[2,3-d]pyrimidin-2-amine], for which the EC50 in assay [1] was determined as 15.5 nM; in assay [2] it was 49 nM.

Consider `C[C@@H](Nc1ncc2c(-c3cc(F)c4nccn4c3)c[nH]c2n1)C(F)(F)F` [Compound 202, (R)-5-(8-Fluoroimidazo[1,2-a]pyridin-6-yl)-N-(1,1,1-trifluoropropan-2-yl)-7H-pyrrolo[2,3-d]pyrimidin-2-amine], for which the EC50 in assay [1] was determined as 6 nM; in assay [2], 76 nM.

`COC[C@H](C)Nc1ncc2c(-c3cc(F)c4nccn4c3)c[nH]c2n1` [Compound 205, (S)-5-(8-Fluoroimidazo[1,2-a]pyridin-6-yl)-N-(1-methoxypropan-2-yl)-7H-pyrrolo[2,3-d]pyrimidin-2-amine]: the EC50 amounted to 5.2 nM in assay [1] and 124 nM in assay [2].

Regarding `Fc1cc(-c2c[nH]c3nc(NCC4(F)CC4)ncc23)cn2ccnc12` [Compound 208, N-((1-Fluorocyclopropyl)methyl)-5-(8-fluoroimidazo[1,2-a]pyridin-6-yl)-7H-pyrrolo[2,3-d]pyrimidin-2-amine], the figures for the EC50 in assay [1] and in assay [2] were 7.1 nM and 30 nM, respectively.

Regarding `Cc1cnc2c(F)cc(-c3c[nH]c4nc(C5CC5)ncc34)cn12` [Compound 276, 2-Cyclopropyl-5-(8-fluoro-3-methylimidazo[1,2-a]pyridin-6-yl)-7H-pyrrolo [2,3-d]pyrimidine], the EC50 in assay [1] is 28.4 nM; in assay [2], 657 nM.

With `CC[C@H](C)Nc1ncc2c(-c3cc(F)c4ncc(C)n4c3)c[nH]c2n1` [Compound 285, (S)—N-(sec-Butyl)-5-(8-fluoro-3-methylimidazo[1,2-a]pyridin-6-yl)-7H-pyrrolo[2,3-d]pyrimidin-2-amine], the EC50 in assay [1] stood at 12.7 nM; in assay [2], 241 nM.

With `COC[C@H](C)Nc1ncc2c(-c3cc(F)c4ncc(C)n4c3)c[nH]c2n1` [Compound 292, (S)-5-(8-Fluoro-3-methylimidazo[1,2-a]pyridin-6-yl)-N-(1-methoxypropan-2-yl)-7H-pyrrolo[2,3-d]pyrimidin-2-amine], the 50% effective concentration (EC50) in assay [1] turned out to be 17 nM; in assay [2] it was 509 nM.

For the compound `Cc1cnc2c(F)cc(-c3c[nH]c4nc(NC5CCC(F)(F)CC5)ncc34)cn12` [Compound 301, N-(4,4-Difluorocyclohexyl)-5-(8-fluoro-3-methylimidazo[1,2-a]pyridin-6-yl)-7H-pyrrolo[2,3-d]pyrimidin-2-amine], the EC50 in assay [1] was determined as 6.6 nM; in assay [2] it was 66 nM.

Regarding `CC(C)(F)CNc1ncc2c(-c3ccc4ncc(C(F)F)n4c3)c[nH]c2n1` [Compound 329, 5-(3-(difluoromethyl)imidazo[1,2-a]pyridin-6-yl)-N-(2-fluoro-2-methylpropyl)-7H-pyrrolo[2,3-d]pyrimidin-2-amine], the results for the EC50 in assay [1] and in assay [2] were 6.8 nM and 211 nM, respectively.

Turning to `O=C(NCC(F)F)c1cnc2ccc(-c3c[nH]c4nc(C5CC5)ncc34)cn12` [Compound 407, 6-(2-Cyclopropyl-7H-pyrrolo[2,3-d]pyrimidin-5-yl)-N-(2,2-difluoroethyl) imidazo[1,2-a]pyridine-3-carboxamide], the EC50 was 1.2 nM in assay [1] and 11 nM in assay [2].

Consider `CC(C)Cc1ncc2c(-c3cnc4nccn4c3)c[nH]c2n1` [Compound 448, 5-(Imidazo[1,2-a]pyrimidin-6-yl)-2-isobutyl-7H-pyrrolo[2,3-d]pyrimidine], for which the results for the EC50 in assay [1] and in assay [2] were 9.3 nM and 245 nM, respectively.
